# Assay results published in PubChem BioAssay (NCI).
#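 All cell lines were grown in 96-well plates and treated with compound for 48 hours. TGI: concentration producing complete growth inhibition.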
# Tests used:
# Experiment in all cases: NCI anticancer screen, dose series, 48 h
# HOP-92 NSCLC = tested on: HOP-92 NSCLC
# DU-145 prostate = tested on: DU-145 prostate
# MDA-MB-231 breast = tested on: MDA-MB-231 breast
# TK-10 renal = tested on: TK-10 renal
# UO-31 renal = tested on: UO-31 renal
# SK-OV-3 ovarian = tested on: SK-OV-3 ovarian
# A498 renal = tested on: A498 renal
# SNB-19 CNS = tested on: SNB-19 CNS
# NCI-H23 lung = tested on: NCI-H23 lung
# IGROV1 ovarian = tested on: IGROV1 ovarian
# LOX IMVI melanoma = tested on: LOX IMVI melanoma
# NCI-H522 lung = tested on: NCI-H522 lung
# HT29 colon = tested on: HT29 colon
# SF-539 CNS = tested on: SF-539 CNS
# SK-MEL-28 melanoma = tested on: SK-MEL-28 melanoma
# A549 NSCLC = tested on: A549 NSCLC
# HL-60(TB) leukemia = tested on: HL-60(TB) leukemia
# ACHN renal = tested on: ACHN renal
# U251 CNS = tested on: U251 CNS
# NCI-H460 lung = tested on: NCI-H460 lung
# K-562 leukemia = tested on: K-562 leukemia
# SF-295 CNS = tested on: SF-295 CNS
# EKVX NSCLC = tested on: EKVX NSCLC
# NCI/ADR-RES ovarian = tested on: NCI/ADR-RES ovarian
# COLO 205 colon = tested on: COLO 205 colon
# SNB-75 CNS = tested on: SNB-75 CNS
# SN12C renal = tested on: SN12C renal
# T-47D breast = tested on: T-47D breast
# MDA-N = tested on: MDA-N
# SW-620 colon = tested on: SW-620 colon
# M14 melanoma = tested on: M14 melanoma
# HCT-116 colon = tested on: HCT-116 colon
# OVCAR-5 ovarian = tested on: OVCAR-5 ovarian
# NCI-H226 lung = tested on: NCI-H226 lung
# UACC-62 melanoma = tested on: UACC-62 melanoma
# 786-0 renal = tested on: 786-0 renal
# MDA-MB-435 = tested on: MDA-MB-435
# MOLT-4 leukemia = tested on: MOLT-4 leukemia
# RXF 393 renal = tested on: RXF 393 renal
# MALME-3M melanoma = tested on: MALME-3M melanoma
# CAKI-1 renal = tested on: CAKI-1 renal
# KM12 colon = tested on: KM12 colon
# UACC-257 melanoma = tested on: UACC-257 melanoma
# OVCAR-3 ovarian = tested on: OVCAR-3 ovarian
# HOP-62 NSCLC = tested on: HOP-62 NSCLC
# SK-MEL-5 melanoma = tested on: SK-MEL-5 melanoma
# HCT-15 colon = tested on: HCT-15 colon
# MCF7 breast = tested on: MCF7 breast
# CCRF-CEM leukemia = tested on: CCRF-CEM leukemia
# HCC-2998 colon = tested on: HCC-2998 colon
# SK-MEL-2 melanoma = tested on: SK-MEL-2 melanoma
# OVCAR-4 ovarian = tested on: OVCAR-4 ovarian
# OVCAR-8 ovarian = tested on: OVCAR-8 ovarian
# HS 578T breast = tested on: HS 578T breast
# SF-268 CNS = tested on: SF-268 CNS
# PC-3 prostate = tested on: PC-3 prostate
structure (smiles),measurement,setting,value
Cc1[nH]c(=O)nc(N(CCO)/N=C/c2ccc(Cl)cc2)c1C(=O)Nc1ccc(Cl)cc1,TGI,HOP-92 NSCLC,> 100 µM
same,TGI,DU-145 prostate,> 100 µM
same,TGI,MDA-MB-231 breast,> 100 µM
same,TGI,TK-10 renal,> 100 µM
same,TGI,UO-31 renal,> 100 µM
same,TGI,SK-OV-3 ovarian,> 100 µM
same,TGI,A498 renal,> 100 µM
same,TGI,SNB-19 CNS,> 100 µM
same,TGI,NCI-H23 lung,> 100 µM
same,TGI,IGROV1 ovarian,> 100 µM
same,TGI,LOX IMVI melanoma,> 100 µM
same,TGI,NCI-H522 lung,> 100 µM
same,TGI,HT29 colon,> 100 µM
same,TGI,SF-539 CNS,> 100 µM
same,TGI,SK-MEL-28 melanoma,> 100 µM
same,TGI,A549 NSCLC,> 100 µM
same,TGI,HL-60(TB) leukemia,> 100 µM
same,TGI,ACHN renal,> 100 µM
same,TGI,U251 CNS,69.2 µM
same,TGI,NCI-H460 lung,> 100 µM
same,TGI,K-562 leukemia,> 100 µM
same,TGI,SF-295 CNS,> 100 µM
same,TGI,EKVX NSCLC,> 100 µM
same,TGI,NCI/ADR-RES ovarian,> 100 µM
same,TGI,COLO 205 colon,> 100 µM
same,TGI,SNB-75 CNS,> 100 µM
same,TGI,SN12C renal,> 100 µM
same,TGI,T-47D breast,> 100 µM
same,TGI,MDA-N,> 100 µM
same,TGI,SW-620 colon,> 100 µM
same,TGI,M14 melanoma,> 100 µM
same,TGI,HCT-116 colon,> 100 µM
same,TGI,OVCAR-5 ovarian,> 100 µM
same,TGI,NCI-H226 lung,> 100 µM
same,TGI,UACC-62 melanoma,> 100 µM
same,TGI,786-0 renal,> 100 µM
same,TGI,MDA-MB-435,> 100 µM
same,TGI,MOLT-4 leukemia,> 100 µM
same,TGI,RXF 393 renal,76.3 µM
same,TGI,MALME-3M melanoma,68.3 µM
same,TGI,CAKI-1 renal,> 100 µM
same,TGI,KM12 colon,> 100 µM
same,TGI,UACC-257 melanoma,> 100 µM
same,TGI,OVCAR-3 ovarian,> 100 µM
same,TGI,HOP-62 NSCLC,> 100 µM
same,TGI,SK-MEL-5 melanoma,> 100 µM
same,TGI,HCT-15 colon,> 100 µM
same,TGI,MCF7 breast,> 100 µM
same,TGI,CCRF-CEM leukemia,> 100 µM
same,TGI,HCC-2998 colon,> 100 µM
same,TGI,SK-MEL-2 melanoma,> 100 µM
same,TGI,OVCAR-4 ovarian,> 100 µM
same,TGI,OVCAR-8 ovarian,> 100 µM
same,TGI,HS 578T breast,> 100 µM
same,TGI,SF-268 CNS,> 100 µM
same,TGI,PC-3 prostate,> 100 µM
